Literature values as cited in patent US7625919B2, “4-azasteroid derivatives as androgen receptor modulators” (priority 2002, dated 2009).

Experiments:
[1] = after 7 years of treatment
[2] = postmenopausal osteoporotic women, median of 22 months of treatment

NCCCC(O)(P(=O)([O-])O)P(=O)(O)O.O.O.O.[Na+] [alendronate, (4-amino-1-hydroxybutylidene)-bis-phosphonate monosodium trihydrate]
increase in spinal BMD [1]: 11%

hPTH(1-34): human parathyroid hormone 1-34 fragment (SVSEIQLMHNLGKHLNSMERVEWLRKKLQDVHNF; Parathyroid hormone; UniProt P01270 32-65, looked up, fragment)
reduction in nonvertebral fractures [2]: 54%
reduction in spine fractures [2]: ≥ 65%
